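Five concentrations, 48 hours, 96-well plates. GI50 is the concentration that inhibits growth by half. TGI marks complete inhibition of growth.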
Experiments:
Assay in all cases: inhibition of tumour cell growth, NCI panel, 48 h
[1] = test system: OVCAR-3 ovarian
[2] = test system: M14 melanoma
[3] = test system: IGROV1 ovarian
[4] = test system: HT29 colon
[5] = test system: CAKI-1 renal
[6] = test system: UACC-257 melanoma
[7] = test system: SK-OV-3 ovarian
[8] = test system: A549 NSCLC
[9] = test system: NCI/ADR-RES ovarian
[10] = test system: LOX IMVI melanoma

| SMILES | TGI [1] | TGI [2] | TGI [3] | TGI [4] | TGI [5] | TGI [6] | TGI [7] | TGI [8] | GI50 [9] | TGI [9] | GI50 [5] | GI50 [6] | GI50 [8] | GI50 [10] | TGI [10] | GI50 [1] | GI50 [3] | GI50 [4] | GI50 [7] |
| --- | --- | --- | --- | --- | --- | --- | --- | --- | --- | --- | --- | --- | --- | --- | --- | --- | --- | --- | --- |
| CC(OC(C)(C)C)[C@H](NC(=O)OCC(Cl)(Cl)Cl)C(=O)O (stereo partly specified) | > 100 µM | > 100 µM | > 100 µM | > 100 µM | > 100 µM | > 100 µM | > 100 µM | > 100 µM |  |  |  |  |  |  |  |  |  |  |  |
| O=C(Cn1c[n+](CC(=O)c2ccc(-c3ccccc3)cc2)c2ccccc21)Nc1cccc2cccnc12 |  |  |  |  | 6.16 µM | 2.78 µM |  | 13 µM | 18.7 µM | 64.8 µM | 2180 nM | 1.28 µM | 3020 nM | 1.54 µM | 3.03 µM |  |  |  |  |
| O=C(O)CCC(NC(=O)c1ccc(Nc2nc3cc(C(F)(F)F)ccc3nc2-c2ccccc2)cc1)C(=O)O (stereo unspecified) | > 100 µM |  | > 100 µM | > 69.8 µM |  | > 100 µM | > 100 µM | > 100 µM |  | > 100 µM |  |  |  |  | > 100 µM |  |  |  |  |
| COc1ccc2cc(/C=N/NC(=O)Nc3ccccc3)ccc2c1 | > 100 µM | > 100 µM | > 100 µM | > 100 µM | > 100 µM | > 100 µM | > 100 µM |  |  | > 100 µM |  |  |  |  | > 100 µM |  |  |  |  |
| CC1(CCOCc2ccccc2)NC(=O)NC1=O (stereo unspecified) | > 100 µM | > 100 µM | > 100 µM | > 100 µM | > 100 µM | > 100 µM |  | > 100 µM |  | > 100 µM |  |  |  |  | > 100 µM |  |  |  |  |
| CC1(C)N=C(N)N=C(N)N1c1ccc(CCc2ccccc2)cc1 | > 80.6 µM |  | 5.28 µM | > 100 µM | > 100 µM | 32 µM | > 100 µM | > 100 µM |  | > 100 µM |  |  |  |  | > 100 µM |  |  |  |  |
| NCc1ccccc1-c1c2nc(c(-c3ccccc3CN)c3ccc([nH]3)c(-c3ccccc3CN)c3nc(c(-c4ccccc4CN)c4ccc1[nH]4)C=C3)C=C2 | 39.2 µM | 48.7 µM | 59.4 µM | > 100 µM |  | 47.7 µM |  | 46.9 µM |  |  |  |  |  |  | 56.3 µM |  |  |  |  |
| CCC(/C=C/C1OC(=O)C=CC1C)=C\C(C)C/C=C/C(C)=C/C(C)C(=O)C(C)C(O)C(C)C/C(C)=C/C(=O)O (stereo unspecified) |  | 3.68e-05 µM | 16 µM | 13 µM |  | 6.25 µM | 14.3 µM | 3.96 µM | 0.701 µM | 4.15 µM | < 0.001 nM | 0.000294 µM | 0.0164 nM |  | 0.00119 µM | 0.0145 nM | 7.48 pM | 4.95 µM | 0.0954 nM |
| Cc1[nH]nc(C(F)(F)F)c1N=NN1CCOCC1 | 23 µM | 32.8 µM | 22.6 µM | 16.8 µM | 4.67 µM | 24.4 µM | 31.7 µM | 24.7 µM |  | 22.1 µM |  |  |  |  | 18.3 µM |  |  |  |  |

Reference: PubChem BioAssay (NCI)
